Assay results reported in ChEMBL document CHEMBL1201862, “PubChem BioAssay data set” (2004).
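Briefly, cells in 96-well plates were exposed to five compound concentrations for 48 h, and endpoints were estimated by linear interpolation. GI50 is the concentration that inhibits growth by half.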 Calls of active or inactive are those of the source. Rule as the data show it: active = GI50 up to about 1.1 µM and inactive = higher.

Key:
Experiment in all cases: NCI anticancer screen, dose series, 48 h
SN12C = system: SN12C
UO-31 = system: UO-31
HOP-62 = system: HOP-62
MOLT-4 = system: MOLT-4
NCI-H522 = system: NCI-H522
TK-10 = system: TK-10
SK-MEL-28 = system: SK-MEL-28
MDA-N = system: MDA-N
SNB-75 = system: SNB-75
HCT-15 = system: HCT-15
Hs-578T = system: Hs-578T
MDA-MB-435 = system: MDA-MB-435
HT-29 = system: HT-29
OVCAR-4 = system: OVCAR-4
COLO 205 = system: COLO 205
NCI/ADR-RES = system: NCI/ADR-RES
SF-539 = system: SF-539
Malme-3M = system: Malme-3M
SR = system: SR
SK-MEL-2 = system: SK-MEL-2
OVCAR-3 = system: OVCAR-3
PC-3 = system: PC-3
IGROV-1 = system: IGROV-1
SF-268 = system: SF-268
BT-549 = system: BT-549
MDA-MB-231 = system: MDA-MB-231
A498 = system: A498
LOX IMVI = system: LOX IMVI
ACHN = system: ACHN
SF-295 = system: SF-295
SK-OV-3 = system: SK-OV-3
CCRF-CEM = system: CCRF-CEM
OVCAR-8 = system: OVCAR-8
UACC-257 = system: UACC-257
RPMI-8226 = system: RPMI-8226
NCI-H226 = system: NCI-H226
A549 = system: A549
U-251 = system: U-251
RXF 393 = system: RXF 393
UACC-62 = system: UACC-62
T47D = system: T47D
HCT-116 = system: HCT-116
786-0 = system: 786-0
HCC 2998 = system: HCC 2998
HL-60 = system: HL-60
NCI-H23 = system: NCI-H23
SK-MEL-5 = system: SK-MEL-5
SNB-19 = system: SNB-19
CAKI-1 = system: CAKI-1
HOP-92 = system: HOP-92
K562 = system: K562
KM12 = system: KM12
DU-145 = system: DU-145
OVCAR-5 = system: OVCAR-5
SW-620 = system: SW-620
NCI-H460 = system: NCI-H460
M14 = system: M14
EKVX = system: EKVX
MCF7 = system: MCF7

With `CN(C)c1ccc(/N=N\c2cccc3ccoc23)cc1` as the molecule, how does the GI50 (SN12C) read?
The GI50 was > 75 µM (inactive).

What about the GI50 (UO-31) of the same molecule?
Its GI50 is 6.46 µM (inactive).

And the GI50 (HOP-62)?
Its GI50 is > 100 µM (inactive).

And the GI50 (MOLT-4)?
Its GI50 is 17.1 µM (inactive).

What about the GI50 (NCI-H522) of the same molecule?
Its GI50 is 35.4 µM (inactive).

What about the GI50 (TK-10) of the same molecule?
The GI50 was 56.5 µM (inactive).

And the GI50 (SK-MEL-28)?
The GI50 was > 100 µM (inactive).

What about the GI50 (MDA-N) of the same molecule?
Its GI50 is > 94.4 µM (inactive).

And the GI50 (SNB-75)?
Its GI50 is > 84.3 µM (inactive).

What about the GI50 (HCT-15) of the same molecule?
Its GI50 is 45.2 µM.

And the GI50 (Hs-578T)?
Its GI50 is > 100 µM (inactive).

What about the GI50 (MDA-MB-435) of the same molecule?
Its GI50 is > 94.2 µM (inactive).

And the GI50 (HT-29)?
Its GI50 is 29.5 µM (inactive).

What about the GI50 (OVCAR-4) of the same molecule?
The GI50 was 29.4 µM (inactive).

What about the GI50 (COLO 205) of the same molecule?
Its GI50 is > 82.8 µM (inactive).

And the GI50 (NCI/ADR-RES)?
Its GI50 is 43.1 µM (inactive).

What about the GI50 (SF-539) of the same molecule?
The GI50 was > 100 µM (inactive).

What about the GI50 (Malme-3M) of the same molecule?
The GI50 was > 100 µM (inactive).

And the GI50 (SR)?
The GI50 was 23.3 µM (inactive).

And the GI50 (SK-MEL-2)?
The GI50 was > 100 µM (inactive).

And the GI50 (OVCAR-3)?
The GI50 was 38.4 µM (inactive).

And the GI50 (PC-3)?
The GI50 was 59.6 µM (inactive).

And the GI50 (IGROV-1)?
The GI50 was > 70.3 µM (inactive).

What about the GI50 (SF-268) of the same molecule?
The GI50 was > 100 µM (inactive).

What about the GI50 (BT-549) of the same molecule?
Its GI50 is > 95.7 µM (inactive).

And the GI50 (MDA-MB-231)?
The GI50 was > 76.9 µM (inactive).

And the GI50 (A498)?
Its GI50 is > 100 µM (inactive).

What about the GI50 (LOX IMVI) of the same molecule?
The GI50 was > 100 µM (inactive).

And the GI50 (ACHN)?
Its GI50 is > 100 µM (inactive).

What about the GI50 (SF-295) of the same molecule?
Its GI50 is 98.6 µM (inactive).

What about the GI50 (SK-OV-3) of the same molecule?
Its GI50 is > 100 µM (inactive).

What about the GI50 (CCRF-CEM) of the same molecule?
The GI50 was > 100 µM (inactive).

What about the GI50 (OVCAR-8) of the same molecule?
The GI50 was > 78 µM (inactive).

What about the GI50 (UACC-257) of the same molecule?
Its GI50 is > 60.7 µM (inactive).

And the GI50 (RPMI-8226)?
The GI50 was 52.2 µM (inactive).

And the GI50 (NCI-H226)?
Its GI50 is > 74.6 µM (inactive).

And the GI50 (A549)?
Its GI50 is > 71.9 µM (inactive).

And the GI50 (U-251)?
Its GI50 is > 62.5 µM (inactive).

What about the GI50 (RXF 393) of the same molecule?
The GI50 was > 80.9 µM (inactive).

What about the GI50 (UACC-62) of the same molecule?
The GI50 was > 100 µM (inactive).

What about the GI50 (T47D) of the same molecule?
Its GI50 is 61.7 µM (inactive).

And the GI50 (HCT-116)?
The GI50 was 69.2 µM (inactive).

And the GI50 (786-0)?
The GI50 was > 100 µM (inactive).

What about the GI50 (HCC 2998) of the same molecule?
Its GI50 is 60.8 µM (inactive).

And the GI50 (HL-60)?
The GI50 was 23.8 µM (inactive).

And the GI50 (NCI-H23)?
The GI50 was > 68.7 µM (inactive).

And the GI50 (SK-MEL-5)?
The GI50 was 43.4 µM (inactive).

And the GI50 (SNB-19)?
The GI50 was > 100 µM (inactive).

What about the GI50 (CAKI-1) of the same molecule?
Its GI50 is > 62.4 µM (inactive).

And the GI50 (HOP-92)?
Its GI50 is 70.5 µM (inactive).

What about the GI50 (K562) of the same molecule?
The GI50 was 44.8 µM (inactive).

And the GI50 (KM12)?
The GI50 was > 73.1 µM (inactive).

And the GI50 (DU-145)?
The GI50 was > 100 µM (inactive).

What about the GI50 (OVCAR-5) of the same molecule?
The GI50 was > 100 µM (inactive).

And the GI50 (SW-620)?
The GI50 was 50.8 µM (inactive).

And the GI50 (NCI-H460)?
The GI50 was > 73.3 µM (inactive).

What about the GI50 (M14) of the same molecule?
Its GI50 is > 40.8 µM (inactive).

And the GI50 (EKVX)?
Its GI50 is 26.9 µM (inactive).

How did the GI50 (SN12C) turn out when `COc1ccc(-c2c3c(nc4nc(SC)nc(SC)c24)CCCC3)cc1OC` was run?
The GI50 was > 100 µM (inactive).

And the GI50 (UO-31)?
The GI50 was 37.1 µM (inactive).

What about the GI50 (HOP-62) of the same molecule?
The GI50 was 46.8 µM (inactive).

What about the GI50 (MOLT-4) of the same molecule?
The GI50 was 33.4 µM (inactive).

And the GI50 (NCI-H522)?
The GI50 was 31.6 µM (inactive).

And the GI50 (TK-10)?
Its GI50 is 38.5 µM (inactive).

And the GI50 (SK-MEL-28)?
The GI50 was 59.7 µM (inactive).

And the GI50 (MDA-N)?
The GI50 was 29.9 µM (inactive).

And the GI50 (SNB-75)?
Its GI50 is 28.2 µM (inactive).

What about the GI50 (HCT-15) of the same molecule?
Its GI50 is 16 µM.

What about the GI50 (Hs-578T) of the same molecule?
Its GI50 is 19.1 µM (inactive).

What about the GI50 (MDA-MB-435) of the same molecule?
The GI50 was 54.3 µM (inactive).

What about the GI50 (HT-29) of the same molecule?
The GI50 was 36.6 µM (inactive).

What about the GI50 (COLO 205) of the same molecule?
Its GI50 is > 100 µM (inactive).

What about the GI50 (SF-539) of the same molecule?
Its GI50 is > 100 µM (inactive).

What about the GI50 (Malme-3M) of the same molecule?
The GI50 was 42.5 µM (inactive).

What about the GI50 (SR) of the same molecule?
Its GI50 is 8.07 µM (inactive).

What about the GI50 (SK-MEL-2) of the same molecule?
The GI50 was 25.8 µM (inactive).

And the GI50 (OVCAR-3)?
The GI50 was 65.5 µM (inactive).

What about the GI50 (PC-3) of the same molecule?
The GI50 was 60 µM (inactive).

And the GI50 (IGROV-1)?
The GI50 was > 100 µM (inactive).

What about the GI50 (SF-268) of the same molecule?
Its GI50 is 82.2 µM (inactive).

What about the GI50 (BT-549) of the same molecule?
The GI50 was > 100 µM (inactive).

What about the GI50 (MDA-MB-231) of the same molecule?
The GI50 was 40.6 µM (inactive).

And the GI50 (A498)?
Its GI50 is > 100 µM (inactive).

And the GI50 (LOX IMVI)?
The GI50 was 46.6 µM (inactive).

What about the GI50 (MCF7) of the same molecule?
Its GI50 is 41.5 µM (inactive).

And the GI50 (ACHN)?
The GI50 was 72.4 µM (inactive).

What about the GI50 (SF-295) of the same molecule?
Its GI50 is 57.5 µM (inactive).

And the GI50 (SK-OV-3)?
The GI50 was > 100 µM (inactive).

And the GI50 (CCRF-CEM)?
Its GI50 is 21.3 µM (inactive).

What about the GI50 (UACC-257) of the same molecule?
Its GI50 is > 100 µM (inactive).

And the GI50 (RPMI-8226)?
Its GI50 is 45.8 µM (inactive).

What about the GI50 (NCI-H226) of the same molecule?
Its GI50 is 56.6 µM (inactive).

What about the GI50 (A549) of the same molecule?
Its GI50 is > 100 µM (inactive).

And the GI50 (U-251)?
The GI50 was 70.3 µM (inactive).

What about the GI50 (RXF 393) of the same molecule?
Its GI50 is 25.9 µM (inactive).

What about the GI50 (UACC-62) of the same molecule?
Its GI50 is 67.6 µM (inactive).

What about the GI50 (T47D) of the same molecule?
The GI50 was 47.6 µM (inactive).

And the GI50 (HCT-116)?
Its GI50 is 44.4 µM (inactive).

And the GI50 (HCC 2998)?
The GI50 was > 100 µM (inactive).

What about the GI50 (HL-60) of the same molecule?
Its GI50 is 25.1 µM (inactive).

And the GI50 (NCI-H23)?
Its GI50 is > 100 µM (inactive).

What about the GI50 (SK-MEL-5) of the same molecule?
The GI50 was 80.2 µM (inactive).

What about the GI50 (SNB-19) of the same molecule?
The GI50 was > 100 µM (inactive).

And the GI50 (CAKI-1)?
Its GI50 is 67.9 µM (inactive).

And the GI50 (HOP-92)?
Its GI50 is 40.2 µM (inactive).

What about the GI50 (K562) of the same molecule?
The GI50 was 28.2 µM (inactive).

What about the GI50 (KM12) of the same molecule?
The GI50 was 81.3 µM (inactive).

What about the GI50 (DU-145) of the same molecule?
Its GI50 is > 100 µM (inactive).

What about the GI50 (OVCAR-5) of the same molecule?
The GI50 was > 100 µM (inactive).

What about the GI50 (SW-620) of the same molecule?
Its GI50 is 67.5 µM (inactive).

And the GI50 (NCI-H460)?
The GI50 was 29.2 µM (inactive).

What about the GI50 (M14) of the same molecule?
The GI50 was 81.7 µM (inactive).

What about the GI50 (EKVX) of the same molecule?
Its GI50 is 70 µM (inactive).
